Reference: PubChem BioAssay AID1845198 (Molecular Pharmacology Branch, DTP, NCI, 2023)

Tested on: 425362-245-T-J1 tumor spheroids, viability % test/control
Experiment: Anticancer human tumor 425362-245-T-J1 patient-derived melanoma cell line growth inhibition
Conditions: spheroids with HUVEC and MSC; for IC50: curve of first compound; for viability, T/C: stronger effect = lower value
How it was run: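 Complex spheroids of malignant cells with endothelial cells and mesenchymal stem cells; agents alone or combined, from near clinical Cmax (or 10 microM if unknown) down in half-log steps, 0.25% DMSO final.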

[1] = second compound 30 pM, first compound 0.00949 µM
[2] = second compound 30 pM, first compound 0.03 µM
[3] = second compound 30 pM, first compound 0.0949 µM
[4] = second compound 30 pM, first compound 0.3 µM
[5] = second compound 30 pM, first compound 0.949 µM
[6] = second compound 30 pM, first compound 3 µM
[7] = second compound 94.9 pM, first compound 0.00949 µM
[8] = second compound 94.9 pM, first compound 0.03 µM
[9] = second compound 94.9 pM, first compound 0.0949 µM
[10] = second compound 94.9 pM, first compound 0.3 µM
[11] = second compound 94.9 pM, first compound 0.949 µM
[12] = second compound 94.9 pM, first compound 3 µM
[13] = second compound 0.0003 µM, first compound 0.00949 µM
[14] = second compound 0.0003 µM, first compound 0.03 µM
[15] = second compound 0.0003 µM, first compound 0.0949 µM
[16] = second compound 0.0003 µM, first compound 0.3 µM
[17] = second compound 0.0003 µM, first compound 0.949 µM
[18] = second compound 0.0003 µM, first compound 3 µM
[19] = second compound 0.000949 µM, first compound 0.00949 µM
[20] = second compound 0.000949 µM, first compound 0.03 µM
[21] = second compound 0.000949 µM, first compound 0.0949 µM
[22] = second compound 0.000949 µM, first compound 0.3 µM
[23] = second compound 0.000949 µM, first compound 0.949 µM
[24] = second compound 0.000949 µM, first compound 3 µM
[25] = second compound 0.003 µM, first compound 0.00949 µM
[26] = second compound 0.003 µM, first compound 0.03 µM
[27] = second compound 0.003 µM, first compound 0.0949 µM
[28] = second compound 0.003 µM, first compound 0.3 µM
[29] = second compound 0.003 µM, first compound 0.949 µM
[30] = second compound 0.003 µM, first compound 3 µM
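Further: spheroids exposed to agents for 7 days.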
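Wherever viability, T/C is given: 100% = DMSO vehicle control viability.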

SMILES | IC50 (second compound 30 pM) [nM] | IC50 (second compound 94.9 pM) [nM] | IC50 (second compound 0.0003 µM) [nM] | IC50 (second compound 0.000949 µM) [nM] | IC50 (second compound 0.003 µM) [nM] | viability, T/C [3] [%] | viability, T/C [4] [%] | viability, T/C [5] [%] | viability, T/C [6] [%] | viability, T/C [9] [%] | viability, T/C [10] [%] | viability, T/C [11] [%] | viability, T/C [12] [%] | viability, T/C [15] [%] | viability, T/C [16] [%] | viability, T/C [17] [%] | viability, T/C [18] [%] | viability, T/C [21] [%] | viability, T/C [22] [%] | viability, T/C [23] [%] | other results
CNCc1ccc(-c2cc(-c3nc(-c4ccc(S(=O)(=O)C(C)C)cc4)cnc3N)on2)cc1 + COc1cc2c(cc1O)CCNC21CSC2c3c(OC(C)=O)c(C)c4c(c3C(COC1=O)N1C(O)C3Cc5cc(C)c(OC)c(O)c5C(C21)N3C)OCO4 | 161 | 131 | < 9.49 | < 9.49 | < 9.49 | 85.1 | 8.53 | 2.32 | 0.13 | 68.1 | 3.99 | 1.51 | 0.15 | 16.4 | 1.69 | 0.79 | 0.15 | 0.27 | 0.35 | 0.13 | viability, T/C [1]: 108%; viability, T/C [2]: 113%; viability, T/C [7]: 96.3%; viability, T/C [8]: 103%; viability, T/C [13]: 43.7%; viability, T/C [14]: 37%; viability, T/C [19]: 0.41%; viability, T/C [20]: 0.41%; viability, T/C [24]: 0.17%; viability, T/C [25]: 0.26%; viability, T/C [26]: 0.28%; viability, T/C [27]: 0.27%; viability, T/C [28]: 0.22%; viability, T/C [29]: 0.2%; viability, T/C [30]: 0.27%
Cc1sc2c(c1C)C(c1ccc(Cl)cc1)=NC(CC(=O)Nc1ccc(O)cc1)c1nnc(C)n1-2 (stereo not given) + COc1cc2c(cc1O)CCNC21CSC2c3c(OC(C)=O)c(C)c4c(c3C(COC1=O)N1C(O)C3Cc5cc(C)c(OC)c(O)c5C(C21)N3C)OCO4 | 69.4 | 67.7 | 11.2 | < 9.49 | < 9.49 | 46 | 14.2 | 1.75 | 1.2 | 40.3 | 5.16 | 2.11 | 0.76 | 17.1 | 3.14 | 0.36 | 0.19 | 0.1 | 0.04 | 0.04 | viability, T/C [1]: 98.3%; viability, T/C [2]: 69.6%; viability, T/C [7]: 94.7%; viability, T/C [8]: 76.6%; viability, T/C [13]: 52.1%; viability, T/C [14]: 37.9%; viability, T/C [19]: 0.26%; viability, T/C [20]: 0.2%; viability, T/C [24]: 0.14%; viability, T/C [25]: 0.25%; viability, T/C [26]: 0.27%; viability, T/C [27]: 0.18%; viability, T/C [28]: 0.17%; viability, T/C [29]: 0.18%; viability, T/C [30]: 0.29%
Cn1ncnc1[C@H]1c2n[nH]c(=O)c3cc(F)cc(c23)N[C@@H]1c1ccc(F)cc1 + COc1cc2c(cc1O)CCNC21CSC2c3c(OC(C)=O)c(C)c4c(c3C(COC1=O)N1C(O)C3Cc5cc(C)c(OC)c(O)c5C(C21)N3C)OCO4 | 12.5 | < 9.49 | < 9.49 | < 9.49 | < 9.49 | 19.6 | 13.2 | 6.87 | 1.96 | 14.8 | 9.34 | 4.06 | 1.23 | 3.81 | 4.9 | 1.34 | 0.77 | 0.27 | 0.14 | 0.13 | viability, T/C [1]: 56.7%; viability, T/C [2]: 30.3%; viability, T/C [7]: 42.5%; viability, T/C [8]: 20%; viability, T/C [13]: 25.2%; viability, T/C [14]: 6.95%; viability, T/C [19]: 0.45%; viability, T/C [20]: 0.42%; viability, T/C [24]: 0.22%; viability, T/C [25]: 0.34%; viability, T/C [26]: 0.37%; viability, T/C [27]: 0.33%; viability, T/C [28]: 0.35%; viability, T/C [29]: 0.3%; viability, T/C [30]: 0.36%
O=C(c1cc(Cc2n[nH]c(=O)c3ccccc23)ccc1F)N1CCN(C(=O)C2CC2)CC1 + COc1cc2c(cc1O)CCNC21CSC2c3c(OC(C)=O)c(C)c4c(c3C(COC1=O)N1C(O)C3Cc5cc(C)c(OC)c(O)c5C(C21)N3C)OCO4 | 2110 | 1420 | < 94.9 | < 94.9 | < 94.9 | 87.2 | 93.6 | 67.9 | 43.4 | 83.1 | 79.2 | 56.2 | 36.3 | 32.6 | 35.5 | 22.8 | 7.06 | 0.47 | 0.29 | 0.17 | viability, T/C (second compound 30 pM, first compound 9.49 µM): 10.1%; viability, T/C (second compound 30 pM, first compound 30 µM): 6.76%; viability, T/C (second compound 94.9 pM, first compound 9.49 µM): 5.46%; viability, T/C (second compound 94.9 pM, first compound 30 µM): 4.13%; viability, T/C (second compound 0.0003 µM, first compound 9.49 µM): 1.54%; viability, T/C (second compound 0.0003 µM, first compound 30 µM): 1.07%; viability, T/C [24]: 0.09%; viability, T/C (second compound 0.000949 µM, first compound 9.49 µM): 0.04%; viability, T/C (second compound 0.000949 µM, first compound 30 µM): 0.16%; viability, T/C [27]: 0.3%; viability, T/C [28]: 0.32%; viability, T/C [29]: 0.26%; viability, T/C [30]: 0.14%; viability, T/C (second compound 0.003 µM, first compound 9.49 µM): 0.15%; viability, T/C (second compound 0.003 µM, first compound 30 µM): 0.3%
